# Reference: patent US20240316146A1, “METHODS OF REDUCING NEUROPATHY AND NEUROPATHIC SYMPTOMS AND TREATING CANCER” (Bexion Pharmaceuticals Inc., priority 2021, published 2024)
# System: mouse oxaliplatin model of chemotherapy-induced neuropathy
# Experiment: Static mechanical (tactile) allodynia, von Frey filaments, Study 2
# Type: in vivo
# Conditions: Study 2; oxaliplatin treated mice, days assessed; BXQ-350 2 and 10 mg/kg
# Description: Static mechanical tactile allodynia: Static mechanical (tactile) allodynia was assessed by measurement of withdrawal threshold using calibrated (force; g) von-Frey monofilaments (Touch-Test Sensory Evaluator; Scientific Marketing Associates) applied to the plantar surface of the left hind-paw. The animals were placed in individual Perspex boxes on a raised metal mesh for 30-40 min before the test to habituate. A series of graduated von Frey hairs (0.07, 0.16, 0.4, 0.6 and 1 g) were applied in sequence with a protocol of 1 sec on 1 sec off repeated 10 times. Each hair was applied perpendicularly to the center of the ventral surface of the paw until it bent slightly. The force applied to the hind-paw of the animal to induce 5 responses out of 10 trials was recorded as paw withdrawal threshold (PWT) 50%.
# 60 adult male C57/BL6 mice (Charles River), 6-7 weeks of age, were housed in groups of 5 in Perspex cages, in a controlled environment of constant temperature and humidity (temperature: 21±1° C., light: dark cycle of 12:12 hours), with food and water available ad libitum. Animals were allowed to recover from transportation for at least one week before commencing experiments.
# Static mechanical tactile allodynia: The same apparatus and protocol were used as for Study 1.
structure (smiles),measurement,value
"O=C([O-])C(=O)[O-].[NH-][C@@H]1CCCC[C@H]1[NH-].[Pt+4] (relative stereo) [Oxaliplatin, cis-[(1R,2R)-1,2-cyclohexanediamine-N,N′][oxalato(2)-O,O′] platinum]",paw withdrawal threshold (PWT) levels (in words),induced consistent and persistent mechanical allodynic response
